In a melting point compilation (Tetko et al.; mined from patent text by program, amines drawn as free bases though some values may be those of a salt) one finds melting point data, which are given here for 86 compounds.

SMILES strings stand for the structures.

Broadly, the melting point is the temperature, or range, at which the solid turns liquid. Consider `CCNC(=O)n1ncc2ccc(OC(C)=O)c(CC3CO3)c21` (stereo unspecified), for which the melting point fell in the range of 110 to 111 °C.
As for `Cc1ccc(-c2ccc3c(c2)C=C(C(=O)O)CC(c2ccccc2)O3)cc1` (stereo unspecified), the figure is 296 to 297 °C.
In turn, `Cc1ccc(S(=O)(=O)OCC2COc3cc(F)c([N+](=O)[O-])cc3O2)cc1` (stereo unspecified) gave a melting point of 106 to 107 °C.
Consider `CCNS(=O)(=O)c1nc2ccccc2n1CC`, for which the melting point fell in the range of 135 to 139 °C.
Compound `CC(=O)c1nc2cc(C)c(F)cc2s1` displayed a melting point of 152 to 153 °C.
Compound `O=C(CCCc1ccccc1)N[C@H](Cc1ccc(C(F)(F)F)cc1)[C@@H](O)c1ccc(F)cc1` (racemic) gave a melting point of 150 to 151 °C.
For the compound `CC(=O)Nc1cc(Br)nn1-c1c(Cl)cc(C(F)(F)F)cc1Cl`, the melting point lay in the range of 180 to 187 °C.
As to `CC(C)=CC1CC(C)=C(C)C2C(=O)OC(=O)C12` (stereo unspecified), the melting point is 78 to 82 °C.
As for `CCc1ccc(C(=O)Sc2ccccn2)cc1`, the melting point lay in the range of 48 to 50 °C.
As for `CCCOc1cc(-c2cc(C=CC(=O)O)ccc2O)cc2c1C(C)(C)CCC2(C)C`, the figure is 114 to 116 °C; as for `Cc1cc2c(cc1C)C(c1ccccc1Cl)C(=O)N2` (stereo unspecified), 231 °C.
Compound `CCCCCc1c(C(C)C)nc(C(C)C)c(C(O)CCCC)c1-c1ccc(F)cc1` (stereo unspecified) returned a melting point of 66 to 68 °C.
In turn, `CCOC(=O)/C=C/c1cn(-c2ccccc2)nc1OCc1ccc(OCc2nc(-c3ccco3)oc2C)cc1` gave a melting point of 142 to 143 °C.
In the case of `COC(=O)c1ccc(CNC(=O)[C@@H]2Cc3ccccc3N2S(=O)(=O)c2ccc(I)cc2)cc1`, the melting point is 80 to 85 °C.
With `CCCCCCC(C)(C)c1cc(OC)c(C2=C[C@@H]3CC[C@@]2(C(=O)O)C3(C)C)c(OC)c1`, the melting point lay in the range of 101 to 102 °C.
As for `CCOC(=O)N1CCN(c2ccc(-n3cnn(C(CC)C(=O)c4ccc(Cl)cc4)c3=O)cn2)CC1` (stereo unspecified), the figure is 139 °C; as for `COc1ccc2c(c1)CCC1C2CCC2(C)C(=O)C(C)CC12` (stereo unspecified), 115 to 116 °C; as for `c1cnc2[nH]cc(C3CN4CCC3CC4)c2c1` (stereo unspecified), 185 °C.
On to `CC(=O)NC1CCN(CCC2CCOc3ccccc32)CC1` (stereo unspecified), for which the melting point lay in the range of 126 to 128 °C.
The compound `COc1ccc(-c2ccc(C(=O)Nc3ccc4cc(CN5CCCC5)cnc4c3C)cn2)cc1` came in with a melting point of 180 to 182 °C.
In the case of `COc1cc(C(N)=O)cc([N+](=O)[O-])c1OC`, the melting point fell in the range of 182 to 185 °C.
`CC(C)(C)C(=O)c1sc(N)nc1-c1ccc(P(=O)(O)O)o1`: the melting point is over 220 °C.
With `COCCCN(C(=O)N(CCCl)N=O)C1(O)COC(OCC(C)C)C(O)C1O` (stereo unspecified), the melting point fell in the range of 67 to 69 °C.
As for `Nc1ccn(CC(O)CO)c(=O)n1` (stereo unspecified), the figure is 169 to 171 °C; as for `CCCCCCCCCCCCCCCCCCCCCC(=O)Oc1cc(C(C)(C)C)c(O)c(C(C)(C)C)c1`, 59 to 61 °C; as for `O=C(O)CN(CF)C(=O)c1ccccc1`, 233 to 235 °C.
With `COc1ccccc1N1CCN(CC(=O)Nc2ccc3c(c2NC(=O)c2ccc(C)cc2)C(=O)c2ccccc2C3=O)CC1`, the melting point fell in the range of 215 to 216 °C.
The compound `COC(=O)/C=C/c1ccc(OCCCC(=O)OC)cc1O` showed a melting point of 108 to 112 °C.
Regarding `O=C(Nc1cccc2c(CBr)c(Br)cnc12)c1c(Cl)cccc1Cl`, the melting point was 210 to 213 °C.
As for `C[C@]1(CN2CCN(N=Cc3cc4cc(C(F)(F)F)ccc4o3)CC2)Cn2cc([N+](=O)[O-])nc2O1`, the figure is 190 to 192 °C; as for `CC(Oc1ccc(Oc2ccc(C(F)(F)F)cn2)cc1)C(=O)OCCOCc1ccccc1` (stereo unspecified), 44 to 47 °C.
`CCOC(=O)CCc1ccc(OCCCc2cn(-c3ccc(C(F)(F)F)cn3)nc2OCC)cc1OCc1ccccc1`: the melting point is 80 to 81 °C.
The compound `CC(C)(C)OC(=O)NCCNC(=O)c1ncsc1-c1cccc(OCc2cccc(Cl)c2)c1` gave a melting point of 116 to 117 °C.
For the compound `O=C1CCc2cc(Cl)c(S(=O)(=O)NCc3ccccc3)cc21`, the melting point lay within 228 to 231 °C.
As for `CN1C(=O)CC[C@]2(C)c3ccc(Sc4ccc5cccc([N+](=O)[O-])c5n4)cc3CC[C@@H]12`, the figure is 199 to 200 °C.
As for `COC(=O)Cn1c(C(=O)Nc2nc(-c3cc(OC)c(C)cc3OC)c(CCC3CCCCC3)s2)cc2cc(OC)ccc21`, the melting point lay in the range of 173 to 175 °C.
`CCCCCCCN(CCCCCSc1nc(-c2ccccc2)c(-c2ccccc2)[nH]1)C(=O)NC` registered a melting point of 93 to 96 °C.
The compound `O=C(c1ccccc1)N1CCN(c2c(Cl)cncc2Cl)CC1` registered a melting point of 132 to 134 °C.
`CS(=O)(=O)c1ccc(-n2nc(C(F)(F)F)cc2-c2ccc(-c3ccco3)cc2)cc1Cl` returned a melting point of 139 to 142 °C.
`COc1ccc(CNc2nc(Cl)cc(Cn3c(C(=O)c4cc(C)cc(C#N)c4)c(C(C)C)c(=O)[nH]c3=O)n2)cc1` yielded a melting point of 337 to 338 °C.
`COc1ccc(-c2c(Cl)c(Cn3cnc4ccccc43)nc3sc4c(c23)CCSC4)cc1` showed a melting point of 201 to 203 °C.
With `Cc1cc(SC(C)C)c(NC(=O)CCCCCSc2nc3c(C)c(Cl)cc(C(C)C)c3o2)c(SC(C)C)n1`, the melting point lay in the range of 99 to 101 °C.
`C=Cn1ccnc1C#N` gave a melting point of 81.5 °C.
As for `C[C@H](NC(=O)Cc1cccc(F)c1)C(=O)N[C@@H]1C(=O)Nc2ccccc2O[C@@H]1c1ccccc1`, the melting point was in the range of 130 to 140 °C.
As for `Cc1ccccc1Nc1nc(NCc2ccccc2)nc2ccccc12`, the melting point fell in the range of 127 to 130 °C.
For the compound `COc1ccc(C=O)c(Cl)c1OCc1ccccc1`, the melting point is 86 to 88 °C.
As for `Cc1ccc(-c2c(O)c(=O)c3ccccc3n2C)cc1`, the figure is 216 to 218 °C.
As for `COc1ccc(C(=O)c2cnoc2C)cc1`, the figure is 78 to 79 °C; as for `FC(F)(F)c1cccc(CN2C(=NCCCn3ccnc3)c3cccc4cccc2c34)c1`, 108 to 109 °C.
Turning to `COc1cn(-c2ccc(N3CCN(C)C3=O)cc2F)nc(-c2ccnn2-c2ccccc2)c1=O`, the melting point was 208 to 209 °C.
For `C=C(F)C(F)(F)n1ncc(-c2ccc(S(N)(=O)=O)cc2)c(-c2ccc(F)cc2)c1=O`, the melting point lay within 230 to 232 °C.
`CC(=O)SCC(Cc1ccccc1)C(=O)Nc1cccc(C(=O)O)c1` (stereo unspecified) showed a melting point of 169 to 170 °C.
As for `O=[N+]([O-])c1cccc(-n2cnnc2C(F)(F)F)c1`, the figure is 142 °C; as for `O=[N+]([O-])c1cn2c(n1)O[C@@H](COc1ccc(N3CCC(Nc4ccc(OCc5ccc(OC(F)(F)F)cc5)cc4)CC3)cc1)CC2`, 227 to 229 °C.
On to `COc1ccc(C(=O)NCc2ccc(C(=O)O)cc2)cc1C12CC3CC(CC(C3)C1)C2`, for which the melting point lay in the range of 286 to 287 °C.
Compound `N#Cc1ccc(S(=O)(=O)n2ccc3ccccc32)cc1C#N` gave a melting point of 171 to 173 °C.
As for `CC(C)Cn1c(CNC(=O)OC(C)(C)C)c(-c2ccccc2F)c2cc(C#N)ccc2c1=O`, the figure is 191 to 192 °C.
In turn, `COC(=O)C1=C(C)NN=C(c2ccccc2)C1c1ccccc1` (stereo unspecified) yielded a melting point of 158 °C.
Turning to `O=C(O)c1ccc2ccc(-c3ccccc3)cc2c1`, the melting point was in the range of 244 to 245 °C.
For the compound `COC(=O)/C=C/n1cnc2c(OC)cccc2c1=O`, the melting point lay in the range of 203 to 208 °C.
Compound `COCCCC#Cc1ccccc1S(N)(=O)=O` yielded a melting point of 59 to 61 °C.
The compound `O=C1C(=Cc2sccc2Oc2ccccc2)CCc2cc(OCCn3ccnc3)ccc21` registered a melting point of 135 to 137 °C.
Turning to `CN(CCCNC(=O)NCCSCc1csc(NC(=N)N)n1)CCC(c1ccccc1)c1ccccn1` (stereo unspecified), the melting point was 95 to 98 °C.
For `CC(C)(C)CNC(=O)c1ccc(Br)c(C(=O)O)c1`, the melting point is 176 to 179 °C.
In the case of `CCOC(=O)CCc1cn(-c2ccc([N+](=O)[O-])cn2)nc1C(C)C`, the melting point is 90 to 91 °C.
The compound `O=CNC(=O)N1CC(Oc2cccc(C(F)(F)F)c2)C1` registered a melting point of 118 to 119 °C.
`COc1ccc(C2=NN(c3nc4ccccc4s3)C(=O)[C@H]3CC=CC[C@@H]23)cc1OC` (relative stereo) had a melting point of 176 to 177 °C.
`CCCCN(CCCC)c1ccc(C2(c3cc(Nc4ccccc4)ccc3OC)OC(=O)c3ccccc32)c(O)c1` (stereo unspecified) returned a melting point of 148 to 152 °C.
Take `CC(C)(C)OC(=O)N1CCC[C@@H](O)[C@H](N)C1`: the melting point lay in the range of 64 to 67 °C.
For `CCOCc1nc2c(N)nc3cc(N4CCCC4=O)ccc3c2n1CC(C)(C)O`, the melting point lay in the range of 200 to 202 °C.
Consider `CCOC(=O)c1cccc(Cc2ccc3ccccc3c2O)c1`, for which the melting point lay within 86 to 87 °C.
For the compound `CCCCOC(=O)C(NC(=O)OCC(Cl)(Cl)Cl)n1cnc2ncncc21` (stereo unspecified), the melting point fell in the range of 114 to 116 °C.
In turn, `OC1CCNC(Cc2ccccc2)C1` (stereo unspecified) showed a melting point of 114 °C.
`O=C(O)c1cn(-c2ccc(F)cc2)c2c(F)c(N3Cc4ccc(Br)cc4C3)c(F)cc2c1=O` came in with a melting point of over 300 °C.
Turning to `CC12C=CC(=O)C(N)=C1CCC1C2CCC2(C)C(=O)CCC12` (stereo unspecified), the melting point was in the range of 162 to 169 °C.
In turn, `CCc1c(C(F)(F)F)nn(-c2ccc(S(N)(=O)=O)cc2)c1-c1ccc(OC)c(C)c1` gave a melting point of 135 to 136 °C.
As for `Cc1nc(-n2ccc(OCc3ccc(F)cc3)cc2=O)sc1C(=O)O`, the figure is over 300 °C; as for `CCCOc1ccc(/C=C/C(=O)OC(C)(C)C)cc1-c1nc2c(CCC)nn(C)c2c(=O)[nH]1`, 167 to 168 °C.
`CCCc1nn(C)c2c(=O)n(CCCOc3ccc(OC(C)(C)C(=O)O)cc3)c(CC)nc12` had a melting point of 124 to 126 °C.
As for `COc1ccc(-c2ccc3nnn(Cc4ccc5ncccc5c4)c3n2)cc1`, the figure is 144 to 146 °C; as for `CCCCCOCCCCCCCCCCCCBr`, 25 °C.
For the compound `C#CCOC(=O)C1=C(C)NC(N)=C(C(=O)OCC)C1c1cccc([N+](=O)[O-])c1` (stereo unspecified), the melting point worked out at 181 °C.
In the case of `C=Cn1cc(C(=O)OCC)c(=O)c2cc(F)c(N3CCNCC3)cc21`, the melting point fell in the range of 208 to 210 °C.
`CCOC(=O)c1cn2c(ccc3cc(OC)ccc32)n1` returned a melting point of 119 to 121 °C.
On to `COc1cnn(C)c(=O)c1Cl`, for which the melting point was 189 to 191 °C.
In turn, `O=C1CCC(c2ccc(-c3cccnc3)cc2)=NN1` gave a melting point of 225 to 226 °C.
